Experimental data reported in US7071231B2, “Naphthalene ureas as glucose uptake enhancers” (Telik, Inc., priority 1999, dated 2006).

Tested on: 3T3 L1 fibroblasts
Experiment: Glucose transport activity assay (14C-2-deoxy-D-glucose uptake)
Type: cell-based
Conditions: EC (effective concentration) for increase in glucose transport; 14C-2-deoxy-D-glucose, 3T3 L1 cells; read-out: Concentration (μM) to reach >150% activity of vehicle control
Protocol: Glucose Transport Activity Assay.
Stimulation of the insulin receptor leads to the transport of glucose from the blood into cells, thus modulating blood glucose levels. 3T3 L1 fibroblasts (ATCC) were grown in Dulbecco's modified Eagle's medium (DMEM) with 10% fetal bovine serum (FBS). The cells were plated at a density of 3×10^4 cells/well in 24-well plates. Two days after confluence was reached, the cells were treated for 3 days with 0.5 mM isobutylmethylxanthine (IBMX), 1 μM dexamethasone, and 1.7 μM insulin. The cells were then transferred to DMEM with 10% FBS and supplemented with 1.7μM insulin for 2 more days. The cells were maintained in DMEM with 10% FBS for an additional 4 days. Finally the cells were serum-starved overnight in 0.1% bovine serum albumin (BSA) in DMEM.
The following day, the medium was replaced with 150 mM NaCl, 1.7 mM KCl, 0.9 mM CaCl2, K2HPO4 (pH 7.4) to which were added either the experimental compounds or their vehicle (DMSO). Insulin or its vehicle (0.01% BSA) was diluted in the assay buffer (containing test compound or vehicle, respectively) to final concentration of […]. After incubation for 30 min at 37° C., 5 μCi/ml ^14C-2-deoxy-D-glucose was added, and the incubation was continued for additional 30 min at 37° C. The cells were then washed 3 times with ice-cold PBS/20 mM glucose and lysed in 250 μl of lysis buffer (50 mM HEPES pH 7.6, 1% Triton X-100) for 30 min at room temperature. Radioactivity in the lysate was quantified by scintillation counting.
Once ^14C-2-deoxy-D-glucose is transported into the cell, it is not released. Glucose transport is, therefore, proportional to the amount of radioactivity in the lysate. The concentration of compound necessary to produce an increase in glucose transport to greater than 150% of the vehicle control (generally representing the sum of the standard deviation of the vehicle control plus the largest standard deviation of a test sample) was recorded as the EC (effective concentration). Shown in FIG. 3 is glucose uptake by cells at various concentrations when treated with Compound 13 and Compound 15.

Molecule | EC (150% of vehicle control) [µM]
5-[({7-[3-(7-{[(3-carboxy-4-hydroxyphenyl)amino]sulfonyl}(2-naphthyl))-2-oxoimidazolidinyl](2-naphthyl)}sulfonyl)amino]-2-hydroxybenzoic acid [Compound 122] | 32
C=CCN=C(Nc1ccc2ccc(NS(=O)(=O)c3ccc(Cl)c(C(=O)OC)c3)cc2c1)Nc1ccc2ccc(NS(=O)(=O)c3ccc(Cl)c(C(=O)OC)c3)cc2c1 [Compound 167, methyl 5-[({7-[((1E)-2-aza-1-{[7-({[4-chloro-3-(methoxycarbonyl)phenyl]sulfonyl}amino)(2-naphthyl)]amino}penta-1,4-dienyl)amino](2-naphthyl)}amino)sulfonyl]-2-chlorobenzoate] | >32
methyl 2-chloro-5-[({7-[({[7-({[4-chloro-3-(methoxycarbonyl)phenyl]amino}sulfonyl)(2-naphthyl)]amino}iminomethyl)amino](2-naphthyl)}sulfonyl)amino]benzoate [Compound 159] | 3.2

Same assay, conditions: Mus musculus, 3T3-L1, read-out: Concentration (μM) to reach >150% activity of vehicle control

Molecule | EC (150% of vehicle control) [µM]
O=C(Nc1ccc2ccc(S(=O)(=O)Nc3cccc([N+](=O)[O-])c3)cc2c1)Nc1ccc2ccc(S(=O)(=O)Nc3cccc([N+](=O)[O-])c3)cc2c1 [Compound 84, N-(7-{[(3-nitrophenyl)amino]sulfonyl}(2-naphthyl))[(7-{[(3-nitrophenyl)amino]sulfonyl}(2-naphthyl))amino]carboxamide] | 3.2

Same assay, conditions: Mus musculus; EC (effective concentration) for increase in glucose transport; 14C-2-deoxy-D-glucose, 3T3 L1 cells; read-out: Concentration (μM) to reach >150% activity of vehicle control

Molecule | EC (150% of vehicle control) [µM]
O=C(Nc1ccc2cc(S(=O)(=O)Nc3ccc(C(=O)O)cc3)ccc2c1)Nc1ccc2cc(S(=O)(=O)Nc3ccc(C(=O)O)cc3)ccc2c1 [Compound 173, 4-{[(6-{[(6-{[(4-carboxyphenyl)amino]sulfonyl}-2-naphthyl)amino]carbonylamino}-2-naphthyl)sulfonyl]amino}benzoic acid] | 3.2
O=C(Nc1ccc2ccc(S(=O)(=O)Nc3ccccc3C(=O)O)cc2c1)Nc1ccc2ccc(S(=O)(=O)Nc3ccccc3C(=O)O)cc2c1 [Compound 45, 2-{[(7-{[N-(7-{[(2-carboxyphenyl)amino]sulfonyl}-2-naphthyl)carbamoyl]amino}-2-naphthyl)sulfonyl]amino}benzoic acid] | 3.2
COC(=O)[C@H](Cc1ccc(O)cc1)NS(=O)(=O)c1ccc2ccc(NC(=O)Nc3ccc4ccc(S(=O)(=O)O)cc4c3)cc2c1 [Compound 72, 7-({[7-({[(1S)-2-(4-hydroxyphenyl)-1-(methoxycarbonyl)ethyl]amino}sulfonyl)-2-naphthyl]amino}carbonylamino)naphthalene-2-sulfonic acid] | 3.2
O=C(O)Cc1ccc(NS(=O)(=O)c2ccc3cc(NC(=O)Nc4ccc5cc(S(=O)(=O)Nc6ccc(CC(=O)O)cc6)ccc5c4)ccc3c2)cc1 [Compound 179, 2-[4-({[6-({N-[6-({[4-(carboxymethyl)phenyl]amino}sulfonyl)-2-naphthyl]carbamoyl}amino)-2-naphthyl]sulfonyl}amino)phenyl]acetic acid] | > 32
COC(=O)c1cc(NS(=O)(=O)c2cc(O)c3ccc(NC(=O)Nc4ccc5c(O)cc(S(=O)(=O)Nc6cc(C(=O)OC)cc(C(=O)OC)c6)cc5c4)cc3c2)cc(C(=O)OC)c1 [Compound 50, methyl 3-({[7-({[7-({[3,5-bis(methoxycarbonyl)phenyl]amino}sulfonyl)-5-hydroxy(2-naphthyl)]amino}carbonylamino)-4-hydroxy(2-naphthyl)]sulfonyl}amino)-5-(methoxycarbonyl)benzoate] | 3.2
O=C(Nc1ccc2ccc(S(=O)(=O)O)cc2c1)Nc1ccc2ccc(S(=O)(=O)N[C@@H](Cc3ccc(O)cc3)C(=O)O)cc2c1 [Compound 73, (2S)-3-(4-hydroxyphenyl)-2-{[(7-{[N-(7-sulfo(2-naphthyl))carbamoyl]amino}(2-naphthyl))sulfonyl]amino}propanoic acid] | 10
COc1ccc(NS(=O)(=O)c2ccc3ccc(NC(=O)Nc4ccc5ccc(S(=O)(=O)Nc6ccc(OC)c(C(=O)O)c6)cc5c4)cc3c2)cc1C(=O)O [Compound 62, 5-{[(7-{[N-(7-{[(3-carboxy-4-methoxyphenyl)amino]sulfonyl}(2-naphthyl))carbamoyl]amino}(2-naphthyl))sulfonyl]amino}-2-methoxybenzoic acid] | 10
COc1ccc(C(=O)O)cc1NS(=O)(=O)c1ccc2ccc(NC(=O)Nc3ccc4ccc(S(=O)(=O)Nc5cc(C(=O)O)ccc5OC)cc4c3)cc2c1 [Compound 66, 3-{[(7-{[(7-{[(3-carboxy-6-methoxyphenyl)amino]sulfonyl}(2-naphthyl))amino]carbonylamino}(2-naphthyl))sulfonyl]amino}-4-methoxybenzoic acid] | 3.2
O=C(Nc1ccc2ccc(S(=O)(=O)O)cc2c1)Nc1ccc2ccc(S(=O)(=O)Nc3ccc(C(=O)O)c(O)c3)cc2c1 [Compound 34, 2-hydroxy-4-{[(7-{[N-(7-sulfo(2-naphthyl))carbamoyl]amino}(2-naphthyl))sulfonyl]amino}benzoic acid] | > 32
COC(=O)[C@H](Cc1ccc(O)cc1)NS(=O)(=O)c1ccc2ccc(NC(=O)Nc3ccc4ccc(S(=O)(=O)N[C@@H](Cc5ccc(O)cc5)C(=O)OC)cc4c3)cc2c1 [Compound 74, methyl (2S)-2-({[7-({N-[7-({[(1S)-2-(4-hydroxyphenyl)-1-(methoxycarbonyl)ethyl]amino}sulfonyl)(2-naphthyl)]carbamoyl}amino)(2-naphthyl)]sulfonyl}amino)-3-(4-hydroxyphenyl)propanoate] | 3.2
O=C(Nc1ccc2ccc(S(=O)(=O)Nc3ccc(C(=O)O)cc3)cc2c1)Nc1ccc2ccc(S(=O)(=O)Nc3ccc(C(=O)O)cc3)cc2c1 [Compound 25, 4-{[(7-{[N-(7-{[(4-carboxyphenyl)amino]sulfonyl}-2-naphthyl)carbamoyl]amino}-2-naphthyl)sulfonyl]amino}benzoic acid] | 3.2
O=C(Nc1ccc2ccc(S(=O)(=O)O)cc2c1)Nc1ccc2ccc(S(=O)(=O)Nc3ccc(Cl)c(S(=O)(=O)O)c3)cc2c1 [Compound 90, 7-{[(7-{[(4-chloro-3-sulfophenyl)amino]sulfonyl}-2-naphthyl)amino]carbonylamino}naphthalene-2-sulfonic acid] | 3.2
O=C(Nc1ccc2c(O)cc(S(=O)(=O)Nc3cc(C(=O)O)cc(C(=O)O)c3)cc2c1)Nc1ccc2c(O)cc(S(=O)(=O)Nc3cc(C(=O)O)cc(C(=O)O)c3)cc2c1 [Compound 51, 5-{[(7-{[N-(7-{[(3,5-dicarboxyphenyl)amino]sulfonyl}-5-hydroxy(2-naphthyl))carbamoyl]amino}-4-hydroxy-2-naphthyl)sulfonyl]amino}benzene-1,3-dicarboxylic acid] | > 32
O=C(Nc1ccc2c(O)cc(S(=O)(=O)Nc3cccc(-c4nnn[nH]4)c3)cc2c1)Nc1ccc2c(O)cc(S(=O)(=O)Nc3cccc(-c4nnn[nH]4)c3)cc2c1 [Compound 68, N-(5-hydroxy-7-{[(3-(1H-1,2,3,4-tetraazol-5-yl)phenyl)amino]sulfonyl}(2-naphthyl))[(5-hydroxy-7-{[(3-(1H-1,2,3,4-tetraazol-5-yl)phenyl)amino]sulfonyl}(2-naphthyl))amino]carboxamide] | 3.2
O=C(Nc1ccc2ccc(C(=O)Nc3cccc(C(=O)O)c3)cc2c1)Nc1ccc2ccc(C(=O)Nc3cccc(C(=O)O)c3)cc2c1 [Compound 116, 3-({7-[({7-[N-(3-carboxyphenyl)carbamoyl]-2-naphthyl}amino)carbonylamino]-2-naphthyl}carbonylamino)benzoic acid] | > 32
O=C(Nc1ccc2cc(S(=O)(=O)Nc3cccc(C(=O)O)c3)ccc2c1)Nc1ccc2cc(S(=O)(=O)Nc3cccc(C(=O)O)c3)ccc2c1 [Compound 171, 3-{[(6-{[(6-{[(3-carboxyphenyl)amino]sulfonyl}-2-naphthyl)amino]carbonylamino}-2-naphthyl)sulfonyl]amino}benzoic acid] | 3.2
O=C(Nc1ccc2c(O)cc(S(=O)(=O)Nc3ccc(-c4nnn[nH]4)cc3)cc2c1)Nc1ccc2c(O)cc(S(=O)(=O)Nc3ccc(-c4nnn[nH]4)cc3)cc2c1 [Compound 69, N-(5-hydroxy-7-{[(4-(1H-1,2,3,4-tetraazol-5-yl)phenyl)amino]sulfonyl}(2-naphthyl))[(5-hydroxy-7-{[(4-(1H-1,2,3,4-tetraazol-5-yl)phenyl)amino]sulfonyl}(2-naphthyl))amino]carboxamide] | > 32
